Test results from patent US7973080B2 (Ambria Dermatology AB, priority 2003, dated 2011).

Assays:
Assay in all cases: MIC by standard blood agar dilution technique
[1] = test system: coagulation-negative staphylococci
Excerpt: (§1) The following bacteria were investigated: methicillin-resistant Staphylococcus aureus (MSRA), fucidic acid-resistant S. aureus, non-resistant S. pyogenes, coagulation-negative staphylococci (for resistance, see Table 1 below) vancomycin-resistant enterococci (Enterococcus CCUG van A and van B), non-resistant Escherichia coli, Acinetobacter resistant against cefadroxil, nitrofurantin, mecillinam, Serratia maltophilia resistant against most types of antibiotics, Enterobacter (for resistance, see Table 1 below; additionally resistant against cefadroxil and nitrofurantin), non-resistant α-streptococci, non-resistant Streptococcus Group G, Pseudomonas aeruginosa (for resistance, see Table 2 below). Inocula of 10^3 and 10^5 bacteria were used.

S. aureus = test system: S. aureus
Excerpt: as §1

Streptococcus group C = settings: inoculate size 10^3
Excerpt: as §1

Pseudomonas aeruginosa = test system: Pseudomonas aeruginosa
Excerpt: as §1

Acinetobacter = settings: inoculate size 10^3
Excerpt: as §1

Alphastreptococci = settings: inoculate size 10^3
Excerpt: as §1

Measured: MIC (% by weight of pentane-1,5-diol)

OCCCCCO [pentane-1,5-diol]
5.0 % by weight: [1]; Coag.neg.staph. 900 × 5538, inoculate size 10^3, MR fuc − | Pseudomonas aeruginosa; P. aeruginosa 921 × 17701, inoculate size 10^3, MR cip +, tri + | Pseudomonas aeruginosa; P. aeruginosa 921 × 17748, inoculate size 10^3, MR cip −, tri + | Pseudomonas aeruginosa; P. aeruginosa 921 × 17756, inoculate size 10^3, MR cip +, tri + | Pseudomonas aeruginosa; P. aeruginosa CCUG 17619, inoculate size 10^3 | Pseudomonas aeruginosa; P. aeruginosa CCUG 17619, inoculate size 10^5 | Acinetobacter; Acinetobacter 116 × 305 | Acinetobacter; Acinetobacter 117 × 217 | Acinetobacter; Acinetobacter 514 × 1224 | Acinetobacter; Acinetobacter 921 × 16968 | Alphastreptococci; Alphastreptococci 912 × 1137 | Alphastreptococci; Alphastreptococci 912 × 1138
15.0 % by weight: [1]; Coag.neg.staph. 900 × 5515, inoculate size 10^5, MR fuc + | [1]; Coag.neg.staph. 916 × 8188, inoculate size 10^3, MR fuc − | S. aureus; S. aureus 916 × 8150, inoculate size 10^5, MR fuc − | S. aureus; S. aureus 916 × 8158, inoculate size 10^5, MR fuc − | S. aureus; S. aureus 916 × 8180, inoculate size 10^5, MR fuc − | S. aureus; S. aureus 916 × 8181, inoculate size 10^5, MR fuc − | S. aureus; S. aureus 916 × 8191, inoculate size 10^5, MR fuc −
2.5 % by weight: Acinetobacter; Acinetobacter 516 × 748 | Acinetobacter; Acinetobacter 921 × 113359
7.5 % by weight: [1]; Coag.neg.staph. 900 × 5516, inoculate size 10^3, MR fuc − | [1]; Coag.neg.staph. 900 × 5525, inoculate size 10^5, MR fuc − | [1]; Coag.neg.staph. 900 × 5539, inoculate size 10^3, MR fuc − | [1]; Coag.neg.staph. 902 × 14176 large, inoculate size 10^3, MR fuc − | [1]; Coag.neg.staph. 902 × 14176 small, inoculate size 10^3, MR fuc + | [1]; Coag.neg.staph. 916 × 8132, inoculate size 10^3, MR fuc − | Streptococcus group C; Streptococcus group C 900 × 1618 | Alphastreptococci; Alphastreptococci 912 × 1135 | Alphastreptococci; Alphastreptococci 912 × 1139 | Alphastreptococci; Alphastreptococci 912 × 1200
10.0 % by weight: [1]; Coag.neg.staph. 900 × 5539, inoculate size 10^5, MR fuc − | [1]; Coag.neg.staph. 902 × 14176 small, inoculate size 10^5, MR fuc + | [1]; Coag.neg.staph. 904 × 2816, inoculate size 10^3, MR fuc + | S. aureus; S. aureus 916 × 8137, inoculate size 10^5, MR fuc − | S. aureus; S. aureus 916 × 8155, inoculate size 10^3, MR fuc − | S. aureus; S. aureus 916 × 8184, inoculate size 10^3, MR fuc + | Streptococcus group C; Streptococcus group C 912 × 1114 | Streptococcus group C; Streptococcus group C 912 × 1185 | Pseudomonas aeruginosa; P. aeruginosa 921 × 57855, inoculate size 10^5, MR van +, tri −
17.5 % by weight: [1]; Coag.neg.staph. 904 × 2816, inoculate size 10^5, MR fuc + | [1]; Coag.neg.staph. 916 × 8188, inoculate size 10^5, MR fuc − | S. aureus; S. aureus 916 × 8163, inoculate size 10^5, MR fuc + | S. aureus; S. aureus 916 × 8183, inoculate size 10^5, MR fuc −
20.0 % by weight: [1]; Coag.neg.staph. 902 × 14176 large, inoculate size 10^5, MR fuc −
12.5 % by weight: [1]; Coag.neg.staph. 900 × 5516, inoculate size 10^5, MR fuc − | [1]; Coag.neg.staph. 900 × 5538, inoculate size 10^5, MR fuc − | [1]; Coag.neg.staph. 916 × 8132, inoculate size 10^5, MR fuc − | S. aureus; S. aureus 916 × 8137, inoculate size 10^3, MR fuc − | S. aureus; S. aureus 916 × 8143, inoculate size 10^3, MR fuc − | S. aureus; S. aureus 916 × 8143, inoculate size 10^5, MR fuc − | S. aureus; S. aureus 916 × 8150, inoculate size 10^3, MR fuc − | S. aureus; S. aureus 916 × 8155, inoculate size 10^5, MR fuc − | S. aureus; S. aureus 916 × 8158, inoculate size 10^3, MR fuc − | S. aureus; S. aureus 916 × 8163, inoculate size 10^3, MR fuc + | S. aureus; S. aureus 916 × 8180, inoculate size 10^3, MR fuc − | S. aureus; S. aureus 916 × 8181, inoculate size 10^3, MR fuc − | S. aureus; S. aureus 916 × 8183, inoculate size 10^3, MR fuc − | S. aureus; S. aureus 916 × 8184, inoculate size 10^5, MR fuc + | S. aureus; S. aureus 916 × 8191, inoculate size 10^3, MR fuc −
